Source: ChEMBL document CHEMBL3046272, “Tolerance of two Bifora radians Bieb populations to ALS inhibitors in winter wheat” (2012)
Active and inactive are the calls of the source. No cut-off for these calls is given here.

What was measured:
Bifora radians [1] = test: Herbicidal activity against ALS-inhibiting herbicide-resistant six to eight-leaf stage Bifora radians infested wheat field at ED50 applied by spraying relative to ALS-inhibiting herbicide-sensitive Bifora radians; format: functional
Bifora radians [2] = test: Herbicidal activity against ALS-inhibiting herbicide-resistant four to six-leaf stage Bifora radians infested wheat field at ED50 applied by spraying relative to ALS-inhibiting herbicide-sensitive Bifora radians; format: functional
Bifora radians [3] = test: Herbicidal activity against ALS-inhibiting herbicide-resistant two to four-leaf stage Bifora radians infested wheat field at ED90 applied by spraying relative to ALS-inhibiting herbicide-sensitive Bifora radians; format: functional
Bifora radians [4] = test: Herbicidal activity against ALS-inhibiting herbicide-resistant four to six-leaf stage Bifora radians infested wheat field at ED90 applied by spraying relative to ALS-inhibiting herbicide-sensitive Bifora radians; format: functional
Bifora radians [5] = test: Herbicidal activity against ALS-inhibiting herbicide-resistant two to four-leaf stage Bifora radians infested wheat field at ED50 applied by spraying relative to ALS-inhibiting herbicide-sensitive Bifora radians; format: functional
Bifora radians [6] = test: Herbicidal activity against ALS-inhibiting herbicide-resistant six to eight-leaf stage Bifora radians infested wheat field at ED90 applied by spraying relative to ALS-inhibiting herbicide-sensitive Bifora radians; format: functional
Bifora radians [7] = test: Herbicidal activity against ALS-inhibiting herbicide-resistant four to six-leaf stage Bifora radians infested wheat field at 15 to 20 g/ha applied by spraying measured after 14 to 56 days post treatment; format: functional, organism-based
Bifora radians [8] = test: Herbicidal activity against ALS-inhibiting herbicide-resistant six to eight-leaf stage Bifora radians infested wheat field at 15 to 20 g/ha applied by spraying measured after 14 to 56 days post treatment; format: functional, organism-based
Bifora radians [9] = test: Herbicidal activity against ALS-inhibiting herbicide-resistant two to four-leaf stage Bifora radians infested wheat field at 15 to 20 g/ha applied by spraying measured after 14 to 56 days post treatment; format: functional, organism-based

| Structure (SMILES) | Ratio (Bifora radians [1]) | Ratio (Bifora radians [2]) | Ratio (Bifora radians [3]) | Ratio (Bifora radians [4]) | Ratio (Bifora radians [5]) | Ratio (Bifora radians [6]) | Activity (Bifora radians [7]) | Activity (Bifora radians [8]) | Activity (Bifora radians [9]) |
| --- | --- | --- | --- | --- | --- | --- | --- | --- | --- |
| COC(=O)c1ccccc1S(=O)(=O)NC(=O)N(C)c1nc(C)nc(OC)n1 [TRIBENURON METHYL] | 2 | 1.8 | 1.8 | 1.9 | 1.7 | 2.4 |  |  |  |
| COc1nc(C)nc(NC(=O)NS(=O)(=O)c2ccccc2Cl)n1 [CHLORSULFURON] | 2.3 | 1.8 | 1.6 | 1.6 | 1.9 | 2 | Active | Active | Active |
